# From patent US20080096870A1, “Methods and Materials for Treating Mental Illness” (priority 2004, published 2008)
# Assays:
# [1] = test system: AMPA-kainate receptors; assay: AMPA-activated currents (IAMPA) in cerebrocortical cultured neurons; format: cell-based, rat; details: for effect on activity of postsynaptic AMPA-kainate receptors (AMPA/kainate receptor function): rat cerebrocortical cultured neurons
# Experimental: (§1) Neuronal Cultures. Cerebral cortices were dissected from newborn rats and treated with 0.25% trypsin to dissociate the cells. Dissociated cells were resuspended in Dulbecco's Modified Eagle's Medium (DMEM) containing 10% plasma derived horse serum (PDHS) and were plated in poly-L-lysine-coated, 35 mm Nunc plastic tissue culture dishes (3.0×10^6 cells/dish/2ml media). Cultures were maintained in an atmosphere of 5% CO2/95% air.
# (§2) Electrophysiological recordings: Voltage- and current-clamp recordings of membrane ionic currents and potentials were conducted by using Axopatch 200B and Axoclamp 1B amplifiers (Axon Instruments, Foster City, Calif.). The perforated nystatin- and gramicidin-based patch-clamp recording techniques were used to reduce nonspecific rundown of intracellular processes. Neurons were used for electrophysiological recordings between 12 and 27 days in vitro. […] Patch microelectrodes were pulled from 1.5 mm borosilicate glass tubing using a two-stage vertical pipette puller (Narishige, East Meadow, N.Y.). […] For rapid application of agonist-containing solutions to neurons, the SF-77B system (Warner Instrument Corp., Hamden, Conn.) was used.
# The miniature EPSCs were recorded in TTX-containing (0.3-1 μM), Mg^2+-free (in case of NMDA receptor recording) extracellular solution at Vh=−60 mV. In order to isolate the NMDA component of GluR-mediated EPSCs, the non-NMDAR (AMPA/kainate) antagonist NBQX (10-20 μM) was added to extracellular solutions. To isolate the non-NMDAR-mediated EPSCs, the experiments were performed in the presence of NMDAR channel blocker, MK-801 (5-10 μM), or in the presence of the NMDAR antagonist, AP-5 (20 μM). Strychnine (1 μM) and picrotoxin (20 μM) were added to the extracellular solution to block glycine and GABA receptors, respectively. […] The basic extracellular solution contained (in mM): NaCl 140, KCl 4, CaCl2 2, MgCl2 1,4-(2-hydroxyethyl)-1-piperazineethanesulfonic acid (HEPES) 10, and glucose 11. The pH of the extracellular solution was adjusted to 7.4 using NaOH. The main solution for filling the patch electrodes contained (in mM): Cs gluconate 135, NaCl 5, KCl 10, MgCl2 1, CaCl2 1, EGTA 11, HEPES 10, Na2ATP 2, Na2GTP […]. The pH of the intracellular solution was adjusted to 7.4 using CsOH. […]
# C and D: 3,5-DBr-L-Phe depresses AMPA-activated currents (IAMPA) in rat cerebrocortical cultured neurons. Examples of AMPA-activated currents recorded from the same rat cortical neuron before application of 3,5-DBr-L-Phe, during exposure to different concentrations of BrPhe (noted in figure) and after washout of 3,5-DBr-L-Phe (C). […] Data expressed as mean±S.E.M. for 3-5 cells. *, P<0.01 compared to control.
# [2] = test system: rat cerebrocortical cultured neurons; assay: Elicited action potentials, current-clamp in cerebrocortical cultured neurons; format: cell-based; details: 100 μM; inward current pulses 2 ms, 2 nA; 5 of 5 neurons
# Experimental: as §1
# Electrophysiological recordings: Voltage- and current-clamp recordings of membrane ionic currents and potentials were conducted by using Axopatch 200B and Axoclamp 1B amplifiers (Axon Instruments, Foster City, Calif.). The perforated nystatin- and gramicidin-based patch-clamp recording techniques were used to reduce nonspecific rundown of intracellular processes. Neurons were used for electrophysiological recordings between 12 and 27 days in vitro. […] Patch microelectrodes were pulled from 1.5 mm borosilicate glass tubing using a two-stage vertical pipette puller (Narishige, East Meadow, N.Y.). […]
# C: Examples of action potentials elicited by depolarizing the membrane with inward current pulses of 2 ms duration and 2 nA amplitude in control (before application of 3,5-DBr-L-Phe), in the presence of 3,5-DBr-L-Phe (100 μM) and after wash-out of the drug. Similar responses were recorded from 5 of 5 neurons.
# [3] = test system: AMPA/kainate receptor; assay: AMPA/kainate receptor-mediated mEPSCs, patch-clamp recording in cerebrocortical cultured neurons; format: cell-based, rat; details: TTX-containing solution, −60 mV, MK-801 10 μM; concentration-dependent
# Experimental: as §1
# Electrophysiological recordings: Voltage- and current-clamp recordings of membrane ionic currents and potentials were conducted by using Axopatch 200B and Axoclamp 1B amplifiers (Axon Instruments, Foster City, Calif.). […]
# (§3) The miniature EPSCs were recorded in TTX-containing (0.3-1 μM), Mg^2+-free (in case of NMDA receptor recording) extracellular solution at Vh=−60 mV. […]
# The digitized data was analyzed off-line using the Mini-Analysis Program (Synaptosoft, Leonia, N.J.) or the pCLAMP9 (Axon Instruments) (Axon Instruments, Union City, Calif.). […]
# FIG. 3. […] A: Representative traces of AMPA-kainate mEPSCs recorded from a cortical neuron under the following conditions: control; in the presence of 3,5-DBr-L-Phe (100 μM); after washout of 3,5-DBr-L-Phe. AMPA/kainate receptor-mediated currents were recorded in TTX-containing (0.3 μM) extracellular solution at holding membrane potential of −60 mV. […] Data is expressed as mean±SEM of 6-7 cells. […]
# [4] = test system: NMDA receptor; assay: NMDA receptor-mediated currents, patch-clamp recording in cultured cerebrocortical neurons; format: cell-based, rat; details: for effect on NMDA receptor-mediated current: rat cerebrocortical neurons, TTX-containing, Mg2+-free extracellular solution, holding potential −60 mV, concentration-dependent
# [5] = test system: GABA receptor; assay: GABA receptor-mediated mIPSCs in cerebrocortical cultured neurons; format: cell-based, rat; details: 100 μM; TTX-containing solution, −60 mV
# Experimental: as §1
# Electrophysiological recordings: Voltage- and current-clamp recordings of membrane ionic currents and potentials were conducted by using Axopatch 200B and Axoclamp 1B amplifiers (Axon Instruments, Foster City, Calif.). The perforated nystatin- and gramicidin-based patch-clamp recording techniques were used to reduce nonspecific rundown of intracellular processes. Neurons were used for electrophysiological recordings between 12 and 27 days in vitro. […]
# as §3
# FIG. 5. […] A: Representative GABA receptor-mediated mIPSCs recorded from the same neuron before (control), during (100 μM), and after (wash) application of 3,5-DBr-L-Phe. GABA receptor-mediated mIPSCs were recorded in TTX-containing (0.3 μM) extracellular solution at holding membrane potential of −60 mV. […] Summary data is expressed as mean±SEM of 5 cells.
# [6] = test system: glutamate release; assay: Evoked paired EPSCs (2nd/1st amplitude ratio) in cerebrocortical cultured neuron; format: cell-based, rat; details: 100 μM, Mg2+ 1 mM, Vh −60 mV
# Experimental: as §1, §2
# FIG. 4. […] A: Effect of 3,5-DBr-L-Phe on the evoked EPSCs in rat cerebrocortical cultured neuron. Examples of average EPSCs (20 traces average) in control conditions (open circle), in 3,5-DBr-L-Phe (filled circle). Synaptic responses were evoked by applying two sub-threshold electric stimuli (0.4-1 ms, 50-90 V, 250 ms apart) to an extracellular electrode (a patch electrode filled with the extracellular solution) positioned in the vicinity of the presynaptic neuron. Sweeps were recorded at 10 s intervals. After 20 sweeps, 100 μM 3,5-DBr-L-Phe was added. Neuron was held in whole-cell mode at Vh=−60 mV in Mg^2+ (1 mM) containing extracellular solution. […] The amplitude of the 1st and 2nd EPSCs were measured against the baseline; each point represents an average of five subsequent sweeps. Data expressed as mean±S.E.M. for 7 cells. *, P<0.01 compared to control.
# [7] = test system: NMDA receptor; details: see ref. 12 and 13; cited from earlier work
smiles,measurement,setting,value
"N[C@@H](Cc1cc(Br)cc(Br)c1)C(=O)O [3,5-DBr-L-Phe, 3,5-dibromo-L-phenylalanine]",effect on AMPA-activated currents (IAMPA),"[1]; AMPA 3 μM, exposure started 45 s before AMPA, different concentrations",depresses
same,effect on activity of postsynaptic AMPA-kainate receptors (AMPA/kainate receptor function),[1],causes depression
same,effect on activity of postsynaptic AMPA-kainate receptors (AMPA/kainate receptor function),"[1]; listed as 3,5-dibromo-L-Phe",significantly depresses
same,effect on elicited action potentials,[2],does not significantly affect
same,effect on AMPA/kainate receptor-mediated mEPSCs (frequency and amplitude),[3],depresses
same,"sensitivity of 3,5-DBr-L-Phe-activated current to NMDA receptor specific antagonists","[4]; 3,5-DBr-L-Phe 100 μM, AP-5 20 μM, 6 neurons",is blocked by NMDA receptor specific antagonists
same,dependence of activating effect on NMDA receptor-mediated current on NMDA concentration,"[4]; 3,5-DBr-L-Phe 100 μM, NMDA 3-1000 μM, glycine 0.1 μM and 10 μM",depends on concentration of NMDA in extracellular solution
same,dependence of activating effect on NMDA receptor-mediated current on glycine concentration,"[4]; 3,5-DBr-L-Phe 100 μM, different concentrations of glycine",does not depend on concentration of glycine
same,effect on NMDA receptor-mediated current,[4],activates
same,effect on NMDA receptor-mediated current,"[4]; listed as 3,5-dibromo-L-Phe",augment
same,effect on GABA receptor-mediated mIPSCs (amplitude and frequency),[5],does not significantly affect
same,effect on glutamate release,[6],causes depression
same,effect on glutamate release,"[6]; listed as 3,5-dibromo-L-Phe",significantly depresses
"N[C@@H](Cc1cccc(Br)c1)C(=O)O [3-bromo-L-Phe, 3-bromo-L-phenylalanine]",effect on activity of postsynaptic AMPA-kainate receptors (AMPA/kainate receptor function),[1],significantly depresses
same,effect on NMDA receptor-mediated current,[4],augment
same,effect on glutamate release,[6],significantly depresses
"NC(CCCP(=O)(O)O)C(=O)O (stereo not drawn) [AP-5, reference compound]","effect of antagonist on 3,5-DBr-L-Phe-activated current","[4]; AP-5 20 μM, 3,5-DBr-L-Phe 100 μM","depression of 3,5-DBr-L-Phe-activated current"
"N[C@@H](Cc1ccccc1)C(=O)O [L-Phe, L-Phenylalanine]",effect on NMDA receptor activity,[7],"opposite, depressant, effect"
